The source made the active and inactive calls. Rule for the calls: active = viability on the fitted dose curve at most 10% of control; inactive = the rest.
tested on: NCI-H719 tumor spheroids, viability; assay: Anticancer human tumor NCI-H719 cell line growth inhibition; conditions: second compound 1 µM; first compound 1 µM; stronger effect = lower value; spheroids with HUVEC and MSC;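 for viability, T/C: spheroids exposed to compounds for seven days; percent viability relative to DMSO vehicle control as 100%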
How it was run: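 Complex spheroids of malignant cells with endothelial cells and mesenchymal stem cells; agents alone or combined, from near clinical Cmax (or 10 microM if unknown) down in half-log steps, 0.25% DMSO final.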

Row | Compound | viability, T/C [%]
1 | [2H]c1nc(C)nc([2H])c1-c1cc(NC[C@@H](C)c2cccc3c(C(=O)NC)ccnc23)ncn1 + Cn1nnc2c(C(N)=O)ncn2c1=O | 99.2

same assay, conditions: second compound 1 µM; first compound 1 µM; spheroids with HUVEC and MSC

Row | Compound | outcome
2 | Cc1cc(C)c(CNC(=O)c2cc(-c3ccc(CN4CCOCC4)cc3)cc3c2cnn3C2CCCC2)c(=O)[nH]1 + Cn1nnc2c(C(N)=O)ncn2c1=O | inactive

same assay, conditions: second compound 1 µM; first compound 3.16 µM; stronger effect = lower value; spheroids with HUVEC and MSC

Row | Compound | viability, T/C [%]
3 | CC(C)n1c(=O)n(C)c2cnc3cc(F)c(-c4ccc(OCCCN5CCCCC5)nc4)cc3c21 + Cn1nnc2c(C(N)=O)ncn2c1=O | 139
4 | CC1COCCN1c1cc(-c2ccnn2C)c2ccnc(-c3ccn[nH]3)c2n1 (stereo not drawn) + Cn1nnc2c(C(N)=O)ncn2c1=O | 7.33
5 | COc1cc(C)[nH]c(=O)c1CN1CCc2c(Cl)cc(C(OC)C3COC3)c(Cl)c2C1=O (stereo not drawn) + Cn1nnc2c(C(N)=O)ncn2c1=O | 108
6 | COc1ccc([C@@H](O)c2cc(-c3ncnc4cc(N5CCOCC5)ccc34)c(F)cc2Cl)nn1 + Cn1nnc2c(C(N)=O)ncn2c1=O | 46.3
7 | Cc1cc(C)c(CNC(=O)c2cc(-c3ccc(CN4CCOCC4)cc3)cc3c2cnn3C2CCCC2)c(=O)[nH]1 + Cn1nnc2c(C(N)=O)ncn2c1=O | 94
8 | [2H]c1nc(C)nc([2H])c1-c1cc(NC[C@@H](C)c2cccc3c(C(=O)NC)ccnc23)ncn1 + Cn1nnc2c(C(N)=O)ncn2c1=O | 90.6

same assay, conditions: second compound 1 µM; first compound 10 µM; stronger effect = lower value; spheroids with HUVEC and MSC

Row | Compound | viability, T/C [%]
9 | CC(C)n1c(=O)n(C)c2cnc3cc(F)c(-c4ccc(OCCCN5CCCCC5)nc4)cc3c21 + Cn1nnc2c(C(N)=O)ncn2c1=O | 95.2
10 | CC1COCCN1c1cc(-c2ccnn2C)c2ccnc(-c3ccn[nH]3)c2n1 (stereo not drawn) + Cn1nnc2c(C(N)=O)ncn2c1=O | 9.3
11 | COc1cc(C)[nH]c(=O)c1CN1CCc2c(Cl)cc(C(OC)C3COC3)c(Cl)c2C1=O (stereo not drawn) + Cn1nnc2c(C(N)=O)ncn2c1=O | 103
12 | COc1ccc([C@@H](O)c2cc(-c3ncnc4cc(N5CCOCC5)ccc34)c(F)cc2Cl)nn1 + Cn1nnc2c(C(N)=O)ncn2c1=O | 49.5
13 | Cc1cc(C)c(CNC(=O)c2cc(-c3ccc(CN4CCOCC4)cc3)cc3c2cnn3C2CCCC2)c(=O)[nH]1 + Cn1nnc2c(C(N)=O)ncn2c1=O | 76.5
14 | [2H]c1nc(C)nc([2H])c1-c1cc(NC[C@@H](C)c2cccc3c(C(=O)NC)ccnc23)ncn1 + Cn1nnc2c(C(N)=O)ncn2c1=O | 87.8

same assay, conditions: second compound 3.16 µM; first compound 0.0316 µM; stronger effect = lower value; spheroids with HUVEC and MSC

Row | Compound | viability, T/C [%]
15 | CC(C)n1c(=O)n(C)c2cnc3cc(F)c(-c4ccc(OCCCN5CCCCC5)nc4)cc3c21 + Cn1nnc2c(C(N)=O)ncn2c1=O | 89.4
16 | CC1COCCN1c1cc(-c2ccnn2C)c2ccnc(-c3ccn[nH]3)c2n1 (stereo not drawn) + Cn1nnc2c(C(N)=O)ncn2c1=O | 61.2
17 | COc1cc(C)[nH]c(=O)c1CN1CCc2c(Cl)cc(C(OC)C3COC3)c(Cl)c2C1=O (stereo not drawn) + Cn1nnc2c(C(N)=O)ncn2c1=O | 103
18 | COc1ccc([C@@H](O)c2cc(-c3ncnc4cc(N5CCOCC5)ccc34)c(F)cc2Cl)nn1 + Cn1nnc2c(C(N)=O)ncn2c1=O | 102
19 | Cc1cc(C)c(CNC(=O)c2cc(-c3ccc(CN4CCOCC4)cc3)cc3c2cnn3C2CCCC2)c(=O)[nH]1 + Cn1nnc2c(C(N)=O)ncn2c1=O | 105
20 | [2H]c1nc(C)nc([2H])c1-c1cc(NC[C@@H](C)c2cccc3c(C(=O)NC)ccnc23)ncn1 + Cn1nnc2c(C(N)=O)ncn2c1=O | 104

same assay, conditions: second compound 3.16 µM; first compound 0.1 µM; stronger effect = lower value; spheroids with HUVEC and MSC

Row | Compound | viability, T/C [%]
21 | CC(C)n1c(=O)n(C)c2cnc3cc(F)c(-c4ccc(OCCCN5CCCCC5)nc4)cc3c21 + Cn1nnc2c(C(N)=O)ncn2c1=O | 109
22 | CC1COCCN1c1cc(-c2ccnn2C)c2ccnc(-c3ccn[nH]3)c2n1 (stereo not drawn) + Cn1nnc2c(C(N)=O)ncn2c1=O | 40.7
23 | COc1cc(C)[nH]c(=O)c1CN1CCc2c(Cl)cc(C(OC)C3COC3)c(Cl)c2C1=O (stereo not drawn) + Cn1nnc2c(C(N)=O)ncn2c1=O | 108
24 | COc1ccc([C@@H](O)c2cc(-c3ncnc4cc(N5CCOCC5)ccc34)c(F)cc2Cl)nn1 + Cn1nnc2c(C(N)=O)ncn2c1=O | 83.7
25 | Cc1cc(C)c(CNC(=O)c2cc(-c3ccc(CN4CCOCC4)cc3)cc3c2cnn3C2CCCC2)c(=O)[nH]1 + Cn1nnc2c(C(N)=O)ncn2c1=O | 102
26 | [2H]c1nc(C)nc([2H])c1-c1cc(NC[C@@H](C)c2cccc3c(C(=O)NC)ccnc23)ncn1 + Cn1nnc2c(C(N)=O)ncn2c1=O | 90.1

same assay, conditions: second compound 3.16 µM; first compound 0.316 µM; stronger effect = lower value; spheroids with HUVEC and MSC

Row | Compound | viability, T/C [%]
27 | CC(C)n1c(=O)n(C)c2cnc3cc(F)c(-c4ccc(OCCCN5CCCCC5)nc4)cc3c21 + Cn1nnc2c(C(N)=O)ncn2c1=O | 111
28 | CC1COCCN1c1cc(-c2ccnn2C)c2ccnc(-c3ccn[nH]3)c2n1 (stereo not drawn) + Cn1nnc2c(C(N)=O)ncn2c1=O | 23.1
29 | COc1cc(C)[nH]c(=O)c1CN1CCc2c(Cl)cc(C(OC)C3COC3)c(Cl)c2C1=O (stereo not drawn) + Cn1nnc2c(C(N)=O)ncn2c1=O | 119
30 | COc1ccc([C@@H](O)c2cc(-c3ncnc4cc(N5CCOCC5)ccc34)c(F)cc2Cl)nn1 + Cn1nnc2c(C(N)=O)ncn2c1=O | 77.8
31 | Cc1cc(C)c(CNC(=O)c2cc(-c3ccc(CN4CCOCC4)cc3)cc3c2cnn3C2CCCC2)c(=O)[nH]1 + Cn1nnc2c(C(N)=O)ncn2c1=O | 108
32 | [2H]c1nc(C)nc([2H])c1-c1cc(NC[C@@H](C)c2cccc3c(C(=O)NC)ccnc23)ncn1 + Cn1nnc2c(C(N)=O)ncn2c1=O | 95.3

same assay, conditions: second compound 3.16 µM; first compound 1 µM; stronger effect = lower value; spheroids with HUVEC and MSC

Row | Compound | viability, T/C [%]
33 | CC(C)n1c(=O)n(C)c2cnc3cc(F)c(-c4ccc(OCCCN5CCCCC5)nc4)cc3c21 + Cn1nnc2c(C(N)=O)ncn2c1=O | 87.8
34 | CC1COCCN1c1cc(-c2ccnn2C)c2ccnc(-c3ccn[nH]3)c2n1 (stereo not drawn) + Cn1nnc2c(C(N)=O)ncn2c1=O | 10.2
35 | COc1cc(C)[nH]c(=O)c1CN1CCc2c(Cl)cc(C(OC)C3COC3)c(Cl)c2C1=O (stereo not drawn) + Cn1nnc2c(C(N)=O)ncn2c1=O | 117
36 | COc1ccc([C@@H](O)c2cc(-c3ncnc4cc(N5CCOCC5)ccc34)c(F)cc2Cl)nn1 + Cn1nnc2c(C(N)=O)ncn2c1=O | 40.8
37 | Cc1cc(C)c(CNC(=O)c2cc(-c3ccc(CN4CCOCC4)cc3)cc3c2cnn3C2CCCC2)c(=O)[nH]1 + Cn1nnc2c(C(N)=O)ncn2c1=O | 107
38 | [2H]c1nc(C)nc([2H])c1-c1cc(NC[C@@H](C)c2cccc3c(C(=O)NC)ccnc23)ncn1 + Cn1nnc2c(C(N)=O)ncn2c1=O | 94.4

same assay, conditions: second compound 3.16 µM; first compound 3.16 µM; stronger effect = lower value; spheroids with HUVEC and MSC

Row | Compound | viability, T/C [%]
39 | CC(C)n1c(=O)n(C)c2cnc3cc(F)c(-c4ccc(OCCCN5CCCCC5)nc4)cc3c21 + Cn1nnc2c(C(N)=O)ncn2c1=O | 148
40 | CC1COCCN1c1cc(-c2ccnn2C)c2ccnc(-c3ccn[nH]3)c2n1 (stereo not drawn) + Cn1nnc2c(C(N)=O)ncn2c1=O | 7.62
41 | COc1cc(C)[nH]c(=O)c1CN1CCc2c(Cl)cc(C(OC)C3COC3)c(Cl)c2C1=O (stereo not drawn) + Cn1nnc2c(C(N)=O)ncn2c1=O | 112
42 | COc1ccc([C@@H](O)c2cc(-c3ncnc4cc(N5CCOCC5)ccc34)c(F)cc2Cl)nn1 + Cn1nnc2c(C(N)=O)ncn2c1=O | 45.6
43 | Cc1cc(C)c(CNC(=O)c2cc(-c3ccc(CN4CCOCC4)cc3)cc3c2cnn3C2CCCC2)c(=O)[nH]1 + Cn1nnc2c(C(N)=O)ncn2c1=O | 92.2
44 | [2H]c1nc(C)nc([2H])c1-c1cc(NC[C@@H](C)c2cccc3c(C(=O)NC)ccnc23)ncn1 + Cn1nnc2c(C(N)=O)ncn2c1=O | 98.9

same assay, conditions: second compound 3.16 µM; first compound 10 µM; stronger effect = lower value; spheroids with HUVEC and MSC

Row | Compound | viability, T/C [%]
45 | CC(C)n1c(=O)n(C)c2cnc3cc(F)c(-c4ccc(OCCCN5CCCCC5)nc4)cc3c21 + Cn1nnc2c(C(N)=O)ncn2c1=O | 116
46 | CC1COCCN1c1cc(-c2ccnn2C)c2ccnc(-c3ccn[nH]3)c2n1 (stereo not drawn) + Cn1nnc2c(C(N)=O)ncn2c1=O | 9.51
47 | COc1cc(C)[nH]c(=O)c1CN1CCc2c(Cl)cc(C(OC)C3COC3)c(Cl)c2C1=O (stereo not drawn) + Cn1nnc2c(C(N)=O)ncn2c1=O | 110
48 | COc1ccc([C@@H](O)c2cc(-c3ncnc4cc(N5CCOCC5)ccc34)c(F)cc2Cl)nn1 + Cn1nnc2c(C(N)=O)ncn2c1=O | 52.4
49 | Cc1cc(C)c(CNC(=O)c2cc(-c3ccc(CN4CCOCC4)cc3)cc3c2cnn3C2CCCC2)c(=O)[nH]1 + Cn1nnc2c(C(N)=O)ncn2c1=O | 82.2
50 | [2H]c1nc(C)nc([2H])c1-c1cc(NC[C@@H](C)c2cccc3c(C(=O)NC)ccnc23)ncn1 + Cn1nnc2c(C(N)=O)ncn2c1=O | 98.7

same assay, conditions: second compound 10 µM; first compound 0.0316 µM; stronger effect = lower value; spheroids with HUVEC and MSC

Row | Compound | viability, T/C [%]
51 | CC(C)n1c(=O)n(C)c2cnc3cc(F)c(-c4ccc(OCCCN5CCCCC5)nc4)cc3c21 + Cn1nnc2c(C(N)=O)ncn2c1=O | 109
52 | CC1COCCN1c1cc(-c2ccnn2C)c2ccnc(-c3ccn[nH]3)c2n1 (stereo not drawn) + Cn1nnc2c(C(N)=O)ncn2c1=O | 63.1
53 | COc1cc(C)[nH]c(=O)c1CN1CCc2c(Cl)cc(C(OC)C3COC3)c(Cl)c2C1=O (stereo not drawn) + Cn1nnc2c(C(N)=O)ncn2c1=O | 110
